Measurements as given in ChEMBL document CHEMBL4270599, “Synthesis of a 3'-C-ethynyl-β-d-ribofuranose purine nucleoside library: Discovery of C7-deazapurine analogs as potent antiproliferative nucleosides” (Eur J Med Chem, 2018).

Legend:
Assay type in all cases: functional
[1] = system: MDA-MB-468; assay: Cytotoxicity against human MDA-MB-468 cells after 48 hrs by SRB assay; conditions: MDA-MB-468, 48 h; for GI50: read-out: pGI50 (converted); for CC50: read-out: pLC50 (the source's name) (converted)
[2] = system: DU-145; assay: Growth inhibition of human DU145 cells assessed as cell growth at 10^-8 M incubated for 48 hrs by sulforhodamine B assay relative to control; conditions: DU-145, 48 h, read-out: Activity
[3] = system: PC-3; assay: Growth inhibition of human PC3 cells assessed as cell growth at 10^-4 M incubated for 48 hrs by sulforhodamine B assay relative to control; conditions: PC-3, 48 h, read-out: Activity
[4] = system: SK-MEL-28; assay: Growth inhibition of human SK-MEL-28 cells assessed as cell growth at 10^-5 M incubated for 48 hrs by sulforhodamine B assay relative to control; conditions: SK-MEL-28, 48 h, read-out: Activity
[5] = system: SNB-19; assay: Growth inhibition of human SNB19 cells assessed as cell growth at 10^-6 M incubated for 48 hrs by sulforhodamine B assay relative to control; conditions: SNB-19, 48 h, read-out: Activity
[6] = system: SW-620; assay: Cytotoxicity against human SW620 cells after 48 hrs by SRB assay; conditions: SW-620, 48 h; for GI50: read-out: pGI50 (converted)
[7] = system: NCI-H23; assay: Cytotoxicity against human NCI-H23 cells after 48 hrs by SRB assay; conditions: NCI-H23, 48 h; for GI50: read-out: pGI50 (converted)
[8] = system: SR; assay: Growth inhibition of human SR cells assessed as cell growth at 10^-5 M incubated for 48 hrs by sulforhodamine B assay relative to control; conditions: read-out: Activity
[9] = system: U-251; assay: Growth inhibition of human U251 cells assessed as cell growth at 10^-6 M incubated for 48 hrs by sulforhodamine B assay relative to control; conditions: U-251, 48 h, read-out: Activity
[10] = system: NCI-H226; assay: Growth inhibition of human NCI-H226 cells assessed as cell growth at 10^-8 M incubated for 48 hrs by sulforhodamine B assay relative to control; conditions: NCI-H226, 48 h, read-out: Activity
[11] = system: HCT-15; assay: Growth inhibition of human HCT15 cells assessed as cell growth at 10^-8 M incubated for 48 hrs by sulforhodamine B assay relative to control; conditions: HCT-15, 48 h, read-out: Activity
[12] = system: NCI-H226; assay: Cytotoxicity against human NCI-H226 cells after 48 hrs by SRB assay; conditions: NCI-H226, 48 h; for GI50: read-out: pGI50 (converted); for CC50: read-out: pLC50 (the source's name) (converted)
[13] = system: RXF 393; assay: Growth inhibition of human RXF393 cells assessed as cell growth at 10^-6 M incubated for 48 hrs by sulforhodamine B assay relative to control; conditions: RXF 393, 48 h, read-out: Activity
[14] = system: HCT-116; assay: Growth inhibition of human HCT116 cells assessed as cell growth at 10^-6 M incubated for 48 hrs by sulforhodamine B assay relative to control; conditions: HCT-116, 48 h, read-out: Activity
[15] = system: HOP-92; assay: Cytotoxicity against human HOP92 cells after 48 hrs by SRB assay; conditions: HOP-92, 48 h; for GI50: read-out: pGI50 (converted)
[16] = system: UACC-62; assay: Growth inhibition of human UACC62 cells assessed as cell growth at 10^-7 M incubated for 48 hrs by sulforhodamine B assay relative to control; conditions: UACC-62, 48 h, read-out: Activity
[17] = system: SF-268; assay: Cytotoxicity against human SF268 cells after 48 hrs by SRB assay; conditions: SF-268, 48 h; for GI50: read-out: pGI50 (converted)
[18] = system: HT-29; assay: Growth inhibition of human HT-29 cells assessed as cell growth at 10^-4 M incubated for 48 hrs by sulforhodamine B assay relative to control; conditions: HT-29, 48 h, read-out: Activity
[19] = system: KM12; assay: Growth inhibition of human KM12 cells assessed as cell growth at 10^-6 M incubated for 48 hrs by sulforhodamine B assay relative to control; conditions: KM12, 48 h, read-out: Activity
[20] = system: SR; assay: Growth inhibition of human SR cells assessed as cell growth at 10^-4 M incubated for 48 hrs by sulforhodamine B assay relative to control; conditions: read-out: Activity
[21] = system: MDA-MB-468; assay: Growth inhibition of human MDA-MB-468 cells assessed as cell growth at 10^-7 M incubated for 48 hrs by sulforhodamine B assay relative to control; conditions: MDA-MB-468, 48 h, read-out: Activity
[22] = system: PC-3; assay: Growth inhibition of human PC3 cells assessed as cell growth at 10^-7 M incubated for 48 hrs by sulforhodamine B assay relative to control; conditions: PC-3, 48 h, read-out: Activity
[23] = system: KM12; assay: Growth inhibition of human KM12 cells assessed as cell growth at 10^-7 M incubated for 48 hrs by sulforhodamine B assay relative to control; conditions: KM12, 48 h, read-out: Activity
[24] = system: 786-0; assay: Growth inhibition of human 786-0 cells assessed as cell growth at 10^-7 M incubated for 48 hrs by sulforhodamine B assay relative to control; conditions: 786-0, 48 h, read-out: Activity
[25] = system: SN12C; assay: Cytotoxicity against human SN12C cells after 48 hrs by SRB assay; conditions: for CC50: read-out: pLC50 (the source's name) (converted)
[26] = system: MDA-MB-435; assay: Cytotoxicity against human MDA-MB-435 cells after 48 hrs by SRB assay; conditions: MDA-MB-435, 48 h; for GI50: read-out: pGI50 (converted); for CC50: read-out: pLC50 (the source's name) (converted)
[27] = system: MDA-MB-435; assay: Growth inhibition of human MDA-MB-435 cells assessed as cell growth at 10^-6 M incubated for 48 hrs by sulforhodamine B assay relative to control; conditions: MDA-MB-435, 48 h, read-out: Activity
[28] = system: A498; assay: Growth inhibition of human A498 cells assessed as cell growth at 10^-7 M incubated for 48 hrs by sulforhodamine B assay relative to control; conditions: A498, 48 h, read-out: Activity
[29] = system: OVCAR-4; assay: Growth inhibition of human OVCAR4 cells assessed as cell growth at 10^-4 M incubated for 48 hrs by sulforhodamine B assay relative to control; conditions: OVCAR-4, 48 h, read-out: Activity
[30] = system: UACC-62; assay: Growth inhibition of human UACC62 cells assessed as cell growth at 10^-5 M incubated for 48 hrs by sulforhodamine B assay relative to control; conditions: UACC-62, 48 h, read-out: Activity
[31] = system: NCI-H522; assay: Growth inhibition of human NCI-H522 cells assessed as cell growth at 10^-8 M incubated for 48 hrs by sulforhodamine B assay relative to control; conditions: NCI-H522, 48 h, read-out: Activity
[32] = system: SF-268; assay: Growth inhibition of human SF268 cells assessed as cell growth at 10^-6 M incubated for 48 hrs by sulforhodamine B assay relative to control; conditions: SF-268, 48 h, read-out: Activity
[33] = read-out: pLC50 (the source's name) (converted)
[34] = read-out: LC50 (the source's name)

C#C[C@@]1(O)[C@@H](CO)O[C@@H](n2ccc3c(N)ncnc32)[C@@H]1O
TGI ([1]; read-out: TGI): 3.33 µM
GI50 [1]: 1.29 µM
CC50 [1]: 8.51 µM
TGI ([1]; read-out: pTGI (converted)): 3.31 µM
growth at 0.01 µM [2]: 103%
growth at 100 µM [3]: -62%
growth at 10 µM [4]: 21%
growth at 1 µM [5]: 67%
TGI ([6]; read-out: TGI): 12.7 µM
GI50 [6]: 0.49 µM
CC50 [6, 33]: > 100 µM
TGI ([6]; read-out: pTGI (converted)): 12.6 µM
CC50 [7, 34]: > 100 µM
TGI ([7]; read-out: TGI): 4.32 µM
GI50 [7]: 1.17 µM
TGI ([7]; read-out: pTGI (converted)): 4.37 µM
growth at 10 µM [8]: 15%
growth at 1 µM [9]: 80%
growth at 0.01 µM [10]: 94%
growth at 0.01 µM [11]: 92%
TGI ([12]; read-out: TGI): 4.85 µM
GI50 [12]: 2.04 µM
CC50 [12]: 26.3 µM
TGI ([12]; read-out: pTGI (converted)): 4.9 µM
growth at 1 µM [13]: 88%
growth at 1 µM [14]: 38%
TGI ([15]; read-out: TGI): 5.56 µM
GI50 [15]: 2.04 µM
CC50 [15, 33]: 22.9 µM
TGI ([15]; read-out: pTGI (converted)): 5.62 µM
growth at 0.1 µM [16]: 101%
TGI ([17]; read-out: TGI): 26.1 µM
GI50 [17]: 2.34 µM
CC50 [17, 33]: > 100 µM
TGI ([17]; read-out: pTGI (converted)): 26.3 µM
growth at 100 µM [18]: -17%
growth at 1 µM [19]: 67%
growth at 100 µM [20]: 11%
growth at 0.1 µM [21]: 97%
growth at 0.1 µM [22]: 97%
growth at 0.1 µM [23]: 102%
growth at 0.1 µM [24]: 92%
TGI ([25]; read-out: TGI): 3.91 µM
GI50 ([25]; read-out: pGI50 (converted)): 0.794 µM
CC50 [25]: 38 µM
TGI ([25]; read-out: pTGI (converted)): 3.89 µM
TGI ([26]; read-out: TGI): 3.49 µM
GI50 [26]: 1.48 µM
CC50 [26]: 8.13 µM
TGI ([26]; read-out: pTGI (converted)): 3.47 µM
growth at 1 µM [27]: 73%
growth at 0.1 µM [28]: 105%
growth at 100 µM [29]: -100%
growth at 10 µM [30]: -44%
growth at 0.01 µM [31]: 90%
growth at 1 µM [32]: 76%

C#C[C@@]1(O)[C@@H](CO)O[C@@H](n2cc(F)c3c(N)ncnc32)[C@@H]1O
TGI ([1]; read-out: TGI): 1.53 µM
GI50 [1]: 0.302 µM
CC50 [1]: 7.94 µM
TGI ([1]; read-out: pTGI (converted)): 1.55 µM
growth at 0.01 µM [2]: 103%
growth at 100 µM [3]: -31%
growth at 10 µM [4]: 37%
growth at 1 µM [5]: 39%
CC50 [6, 34]: > 100 µM
TGI ([6]; read-out: TGI): 2.9 µM
GI50 [6]: 0.158 µM
TGI ([6]; read-out: pTGI (converted)): 2.88 µM
TGI ([7]; read-out: TGI): 6.85 µM
GI50 [7]: 0.398 µM
CC50 [7, 33]: > 100 µM
TGI ([7]; read-out: pTGI (converted)): 6.92 µM
growth at 10 µM [8]: 4%
growth at 1 µM [9]: 38%
growth at 0.01 µM [10]: 92%
growth at 0.01 µM [11]: 97%
TGI ([12]; read-out: TGI): 2.63 µM
GI50 [12]: 0.525 µM
CC50 [12]: > 100 µM
TGI ([12]; read-out: pTGI (converted)): 2.63 µM
growth at 1 µM [13]: 42%
growth at 1 µM [14]: 4%
CC50 [15, 34]: > 100 µM
GI50 [15]: 0.038 µM
growth at 0.1 µM [16]: 91%
CC50 [17, 34]: > 100 µM
TGI ([17]; read-out: TGI): 78.3 µM
GI50 [17]: 0.759 µM
TGI ([17]; read-out: pTGI (converted)): 77.6 µM
growth at 100 µM [18]: 2%
growth at 1 µM [19]: 35%
growth at 100 µM [20]: 3%
growth at 0.1 µM [21]: 84%
growth at 0.1 µM [22]: 84%
growth at 0.1 µM [23]: 85%
growth at 0.1 µM [24]: 87%
TGI ([25]; read-out: TGI): 4.74 µM
CC50 [25]: > 100 µM
TGI ([25]; read-out: pTGI (converted)): 4.79 µM
TGI ([26]; read-out: TGI): 3.26 µM
GI50 [26]: 0.417 µM
CC50 [26]: 45.7 µM
TGI ([26]; read-out: pTGI (converted)): 3.24 µM
growth at 1 µM [27]: 28%
growth at 0.1 µM [28]: 95%
growth at 100 µM [29]: -25%
growth at 10 µM [30]: -60%
growth at 0.01 µM [31]: 84%
growth at 1 µM [32]: 42%
